Where a name gives a salt, the structure may show the parent alone.
How the values were obtained:
protein kinase C (PKC) = experiment: Measurement of the activity to inhibit protein kinase C (PKC); type: biochemical, rat; settings: for Ki: ATP 1, 3, 5 and 10 μM, double reciprocal plotting, PKC from rat brain, read-out: PKC inhibiting activity in terms of Ki value
Procedure: Each of compounds 1 to 10 was used as an inhibitor for PKC. As a comparative compound, 1- 2-(6-benzothiazolesulfonylamino)ethyl!-4- 3-(phenoxy)propyl!piperazine dihydrochloride disclosed in International Patent Application Publication No. W092/14712 was used. Measurement of a PKC inhibiting activity of each of compounds 1 to 10 was conducted utilizing a kit for measuring PKC inhibiting activity (manufactured and sold by Medical and Biological Laboratories, Japan). PKC was isolated from a rat brain and purified by the method according to Inagaki et al. (Journal of Biochemistry, vol. 260, p.2922-2925, 1985). On the surface of each well of the 96-well plate of the measuring kit, a peptide which is a substrate for PKC was immobilized. To each of the wells was added a solution containing 25 mM Tris buffer (pH 7.5), 3 mM magnesium chloride, 1 mM calcium chloride, 0.1% 2-mercaptoethanol, 1 mg/ml bovine serum albumin, 50 μg/ml phosphatidylserine, 10 μg/ml PKC and 1 μM of ATP, thereby initiating the reaction. Substantially the same reaction as mentioned above was repeated three more times, except that the ATP concentration was changed to 3, 5 and 10 μM. 3 Minutes after the initiation of each of the reactions, 100 μl of an aqueous 20% phosphoric acid solution was added to each well of the individual plates to terminate the reaction. Each well was washed with TrPBS three times. 100 μl of the primary antibody included in the kit, which had been diluted 10-fold with TwPBS, was added to each of the washed wells, and allowed to stand at room temperature for 1 hour. Each well was washed with TrPBS three times. Then, as a secondary antibody, 100 μl of peroxydase-labeled anti-mouse IgG antibody (manufactured and sold by Bio-Rad laboratories, U.S.A.) which had been diluted 1000-fold with TwPBS was added to each well, and allowed to stand at room temperature for 1 hour. Each well was washed with TrPBS three times. To each well was added 100 μl of a coloring agent containing 2 mg/ml orthophenylenediamine and an aqueous 0.04% hydrogen peroxide solution. When the coloring proceeded satisfactorily, 30 μl of 4.5M sulfuric acid was added to each well to terminate the reaction. The absorbance of the reaction mixture in each well was determined using a microplate reader (manufactured and sold by Bio-Rad laboratories, u.s.a.). In order to measure the PKC inhibiting activity of each of compounds 1 to 10 and the comparative compound, each of the compounds having an appropriate concentration was individually added to the above-mentioned respective solutions having ATP concentrations of 1, 3, 5 and 10 μM and, then, the PKC activity was individually measured in terms of the absorbance in substantially the same manner as mentioned above. The PKC inhibiting activity in terms of inhibition constant (Ki) was individually obtained by double reciprocal plotting of the respective PKC activities obtained in the presence of each of compounds 1 to 10 and the comparative compound, and the respective PKC activities obtained in the absence of compounds 1 to 10 and the comparative compound.

[1] = tested on: tracheal specimens excised from guinea pigs (bronchial smooth muscle); experiment: Inhibitory effect on KCl-induced contraction of tracheal specimens excised from guinea pigs; parameters: species or system guinea pig; settings: for Emax: Cavia porcellus, 20 mM KCl-induced contraction, maximum relaxation with 100 μM papaverine = 100%, 37 °C, 3 specimens, cumulative addition, read-out: Bronchial smooth muscle-relaxation ratio
Description: According to a method in which tracheal specimens excised from guinea pigs were used (Takagi and Ozawa, "Yakubutsugaku Jikken (Experiments in Pharmacology)", p.100-102, 1960, published by Nanzando, Japan; and Fujiwara and Shibata, "Yakurigaku Kiso Jikenho (Methods of Fundamental Experiments in Pharmacology)" p.131-134, 1982, published by Kyourin, Japan), the relaxing effect of benzothiazolesulfonamide derivatives of the present invention (compounds 1 to 10) on bronchial smooth muscle was evaluated. From male guinea pigs weighing 350 to 500 g (Hartley strain, Kuroda Junkei Dobutsu), tracheas were excised and each of the excised tracheal specimens was hung in a 20 ml Magnus tube filled with Krebs-Henseleit solution containing 3 μM indomethacin under isometric conditions (initial load: 1.5 g). The solution temperature was kept at 37 ° C. in an atmosphere containing 95% O2 and 5% CO2. […] On the other hand, each of the compounds of the present invention was dissolved in distilled water or physiological saline and, after the KCl-induced contraction became stable, the compound solution was cumulatively added into the Magnus tube. The relaxing effect of each of the compounds of the present invention on contracted tracheal specimens was evaluated and a dose-response curve was obtained. After the evaluation of the relaxing effect, 100 μM of papaverine was individually added into the Magnus tubes, to thereby obtain a maximum relaxation value. Taking the obtained maximum relaxation value as 100%, the relaxation ratio was calculated with respect to each of thee compounds of the present invention. The number of specimens tested for each compound was 3. As a comparative compound, 1- 2-(6-benzothiazolesulfonylamino)ethyl!-4- 3-(phenoxy)propyl!piperazine […] disclosed in International Patent Application Publication No. WO92/14712 was used. (2) Results of the calculations

[2] = biological target: T1, Myosin light chain kinase (MLCK) (Gallus gallus, UniProt P11799); experiment: Measurement of the activity to inhibit Myosin light chain kinase (MLCK); type: biochemical; settings: for Ki: ATP 20, 30, 50 and 100 μM, double reciprocal plotting, substrate MLC from chicken gizzard, read-out: MLCK inhibiting activity in terms of Ki value
T1 construct: MLCK was isolated and purified by the method according to Walsh et al; from tissue
T1 sequence (P11799 935-1906): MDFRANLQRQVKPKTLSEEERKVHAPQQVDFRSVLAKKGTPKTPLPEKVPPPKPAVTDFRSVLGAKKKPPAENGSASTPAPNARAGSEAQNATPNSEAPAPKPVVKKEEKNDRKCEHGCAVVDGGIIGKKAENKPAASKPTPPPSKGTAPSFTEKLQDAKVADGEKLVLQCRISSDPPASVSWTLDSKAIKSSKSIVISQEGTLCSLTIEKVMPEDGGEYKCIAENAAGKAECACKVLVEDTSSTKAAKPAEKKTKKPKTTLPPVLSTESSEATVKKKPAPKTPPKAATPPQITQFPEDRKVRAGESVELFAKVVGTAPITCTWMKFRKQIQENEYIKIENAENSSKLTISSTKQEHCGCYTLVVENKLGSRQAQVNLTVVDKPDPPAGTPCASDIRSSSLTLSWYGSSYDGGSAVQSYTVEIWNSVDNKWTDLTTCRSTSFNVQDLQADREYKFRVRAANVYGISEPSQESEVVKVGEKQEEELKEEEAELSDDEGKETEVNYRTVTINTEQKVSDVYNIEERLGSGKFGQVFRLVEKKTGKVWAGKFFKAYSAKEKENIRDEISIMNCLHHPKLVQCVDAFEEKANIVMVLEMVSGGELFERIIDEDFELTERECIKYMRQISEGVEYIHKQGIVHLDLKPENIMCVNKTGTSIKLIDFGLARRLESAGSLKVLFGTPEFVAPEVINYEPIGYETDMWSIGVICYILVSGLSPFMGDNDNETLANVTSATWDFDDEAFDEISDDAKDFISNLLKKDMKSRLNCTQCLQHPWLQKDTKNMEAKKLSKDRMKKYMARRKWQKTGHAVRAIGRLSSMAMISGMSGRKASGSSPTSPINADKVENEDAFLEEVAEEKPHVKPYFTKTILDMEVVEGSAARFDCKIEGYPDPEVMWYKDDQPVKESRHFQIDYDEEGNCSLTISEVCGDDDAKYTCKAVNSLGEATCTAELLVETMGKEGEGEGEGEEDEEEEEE
Procedure: Each of compounds 1 to 10 was used as an inhibitor for MLCK. As a comparative compound, 1- 2-(6-benzothiazolesulfonylamino)ethyl!-4- 3-(phenoxy)propyl!piperazine dihydrochloride disclosed in International Patent Application Publication No. WO92/14712 was used. Measurement of an MLCK inhibiting activity of each of compounds 1 to 10 was conducted utilizing the reaction system of MLCK and an antibody specific for phosphorylated myosine light chain (MLCP). MLC was isolated from a chicken gizzard and purified by the method according to Perry et al. (Journal of Biochemistry, vol. 211, p.267-272, 1983), to thereby obtain 20 kDa of purified MLC. On the other hand, MLCK was isolated and purified by the method according to Walsh et al. (Methods in Enzymology, vol. 99, p.279-288, 1983). Calmodulin was isolated from a pig brain and purified by the method according to Yazawa (Journal of Biochemistry, vol. 87, p.1313-1320, 1980). Further, anti-MLCP antibody was prepared by using, as an antigen, a synthetic peptide which has an amino acid sequence of an MLCP amino acid fragment of 12 amino acid residues containing a serine residue (phosphorylation site of MLCP). […] The synthetic peptide was subjected to phosphorylation by MLCK in the presence of ATP, followed by purification by high performance liquid chromatography. The purified peptide was conjugated with key hole limpet hemocyanin (KLH). The conjugation efficiency thereof was 110-148 nmol peptide/mg KLH. 0.2 mg of the KLH-conjugated peptide was mixed with an adjuvant and injected to a rabbit. The injection was conducted four more times, to thereby immunize the […]. An anti-MLCP antibody was obtained from the […], and the antibody titer thereof was examined. With respect to the anti-MLCP antibody having a satisfactorily high antibody titer, an IgG fraction (anti-MLCP IgG) was obtained and purified. Measurement of the MLCK activity was conducted as follows. MLC was diluted with a phosphate buffer (PBS) to obtain a solution having a MLC concentration of 5 μg/ml. 100 μl of the solution was added to each well of 96-well immunoplate, and was allowed to stand overnight at 4° C., to thereby immobilize the MLC on the surface of each well. Each plate was washed with PBS to thereby remove the MLC which had not been immobilized. To each of the MLC-immobilized wells was added a solution containing 25 mM Tris buffer (pH 7.5), 3 mM magnesium chloride, 1 mM calcium chloride, 0.1% of 2-mercaptoethanol, 1 mg/ml bovine serum albumin, 20 μg/ml calmoduline, 0.1 μg/ml MLCK, and 20 μM of ATP, thereby initiating the reaction. Substantially the same reaction as mentioned above was repeated three more times, except that the ATP concentration was changed to 30, 50 and 100 μM. 3 Minutes after the initiation of each of the reactions, 100 μl of an aqueous 20% phosphoric acid solution was added to each well of the individual plates to terminate the reaction. Each well was washed three times with PBS containing 0.2% of Triton X-100 (TrPBS). As a primary antibody, 100 μl of anti-MLCP antibody which had been diluted 500-fold with PBS containing 0.05% Tween 20 (TwPBS) was added to each of the washed wells, and allowed to stand at room temperature for 1 hour. Each well was washed with TrPBS three times. Then, as a secondary antibody, 100 μl of peroxydase-labeled anti-rabit IgG antibody (manufactured and sold by Cappel Co., Ltd., Germany) which had been diluted 1000-fold with TwPBS was added to each well, and allowed to stand at room temperature for 1 hour. Each well was washed with TrPBS three times. To each well was added 100 μ l of a coloring agent containing 2 mg/ml orthophenylenediamine and an aqueous 0.04% hydrogen peroxide solution. When the coloring proceeded satisfactorily, 30 μl of 4.5M sulfuric acid was added to each well to terminate the reaction. The absorbance of the reaction mixture in each well was determined using a microplate reader (manufactured and sold by Bio-Rad laboratories, U.S.A.). […]

bronchial smooth muscle = settings: disclosed in WO92/14712; cited from earlier work

SMILES | Ki (protein kinase C (PKC)) [µM] | Ki [2] [µM] | Emax [1] [%] | activity to inhibit protein kinase C (in words) (protein kinase C (PKC); conclusion from Table 1) | ability to relax a bronchial smooth muscle of a tracheal specimen (in words) ([1]; KCl-induced contraction, conclusion from Table 2) | activity to inhibit myosin light chain kinase (in words) ([2]; conclusion from Table 1) | ability to relax a bronchial smooth muscle by its antihistaminic activity (bronchial smooth muscle)
O=S(=O)(c1cccc2ncsc12)N1CCCNCC1 [Compound 1, 1-(7-benzothiazolesulfonyl)homopiperazine hydrochloride] | 7 | 80 | 30.5 |  |  |  | 
O=S(=O)(NCCN1CCN(CCCOc2ccccc2)CC1)c1ccc2ncsc2c1 [Comparative compound, 1-2-(6-benzothiazolesulfonylamino)ethyl!-4-3-(phenoxy)propyl!piperazine dihydrochloride, reference compound] | > 200 | > 200 | 6.8 | no activity to inhibit the protein kinases | no ability to relax such a bronchial smooth muscle | no activity to inhibit the protein kinases | 
O=S(=O)(NCCNCc1ccc2c(c1)OCO2)c1cccc2ncsc12 [Compound 7, N-2-(3,4-methylenedioxybenzylamino)ethyl!-7-benzothiazolesulfonamide hydrochloride] | 6 | 50 | 96.8 |  |  |  | 
CC1CNCCN1S(=O)(=O)c1cccc2ncsc12 (stereo not shown) [Compound 3, 1-(7-benzothiazolesulfonyl)-2-methylpiperazine hydrochloride] | 15 | 90 | 21.1 |  |  |  | 
O=S(=O)(c1ccc2ncsc2c1)N1CCNCC1 [Compound 6, 1-(6-benzothiazolesulfonyl)piperazine hydrochloride] | 15 | 25 | 27.2 |  |  |  | 
O=S(=O)(NCCN1CCN(CCCOc2ccccc2)CC1)c1ccc2ncsc2c1 [1-2-(6-benzothiazolesulfonylamino)ethyl!-4-3-(phenoxy)propyl!piperazine] |  |  |  |  |  |  | has the ability to relax a bronchial smooth muscle by its antihistaminic activity
O=S(=O)(c1cccc2ncsc12)N1CCNCC1 [Compound 2, 1-(7-benzothiazolesulfonyl)piperazine hydrochloride] | 5 | 50 | 24 |  |  |  | 

Further lines, with some results ahead:

Ki (protein kinase C (PKC)) [µM] | Ki [2] [µM] | SMILES | Emax [1] [%] | activity to inhibit protein kinase C (in words) (protein kinase C (PKC); conclusion from Table 1) | ability to relax a bronchial smooth muscle of a tracheal specimen (in words) ([1]; KCl-induced contraction, conclusion from Table 2) | activity to inhibit myosin light chain kinase (in words) ([2]; conclusion from Table 1) | ability to relax a bronchial smooth muscle by its antihistaminic activity (bronchial smooth muscle)
25 | 90 | CC(NCCNS(=O)(=O)c1cccc2ncsc12)c1cccc(Cl)c1 (stereo not shown) [Compound 9, N-{2-1-(3-chlorophenyl)ethyl!aminoethyl}-7-benzothiazolesulfonamide hydrochloride] | 74.6 |  |  |  | 
35 | 120 | CNCCNS(=O)(=O)c1cccc2ncsc12 [Compound 5, 1-(7-benzothiazolesulfonyl)-4-methylethylenediamine hydrochloride] | 22 |  |  |  | 
7 | 55 | O=S(=O)(NCCNCc1cccc(F)c1)c1cccc2ncsc12 [Compound 10, N-2-(3-fluorobenzylamino)ethyl!-7-benzothiazolesulfonamide hydrochloride] | 78 |  |  |  | 
5 | 75 | NCCNS(=O)(=O)c1cccc2ncsc12 [Compound 4, 1-(7-benzothiazolesulfonyl)ethylenediamine hydrochloride] | 33 |  |  |  | 
5 | 55 | O=S(=O)(NCCNCc1cccc(Cl)c1)c1cccc2ncsc12 [Compound 8, N-2-(3-chlorobenzylamino)ethyl!-7-benzothiazolesulfonamide hydrochloride] | 85.7 |  |  |  | 

Reference: US5504098A, “Benzothiazolesulfonamide derivative, method for preparing the same, and use thereof” (Asahi Kasei Kogyo Kabushiki Kaisha, priority 1993, dated 1996)
